Laboratory results reported in US20210134398A1, “Combinatorial Chemistry Computational System and Enhanced Selection Method” (Southern Methodist University, priority 2019, published 2021).

Assays:
[1] = molecular target: P-gp (P-gp over-expressing cell line, DU145TXR) (Homo sapiens, UniProt P08183); experiment: Cellular accumulation of experimental compounds by LC-MS/MS with and without tariquidar
Method: Stimulation of basal ATPase by 29-variants was used as an indicator that a compound may be a P-gp transport substrate. Effects on stimulated P-gp ATPase activity indicated whether a compound directly interfered with ATP usage by the protein (***, p<0.001; **, p<0.01; *, p<0.1; NS, not significant). Quantitative cellular accumulation of 29-variants was performed using LC-MS/MS and is presented as a ratio of the cellular amounts of 29-variants in the presence of P-gp inhibitor, tariquidar, divided by amounts accumulated in its absence. […] Binding of an ATP analog, SL-ATP, to P-gp was used to determine whether ATP binding to P-gp was affected by the 29-variants. Values +/−standard deviations are shown for at least three different P-gp preparations and three independent SL-ATP titration experiments. The values for SL-ATP binding in the presence of 29 were taken directly from Brewer et al. (2014).
Intracellular accumulation of compound 29 variants. Cell accumulation assays for each of the 29 variants were performed as in reference^28 to more directly assess whether the compounds were indeed transport substrates for P-gp.
Cellular Accumulation Assays for Experimental P-gp Inhibitors. Cells used (DU145TXR), cell culturing, cell exposure to compounds, cellular handling and extractions were performed as described in^28. LC-MS/MS methods were performed as described in^71 and as modified in^28.

[2] = tested on: P-gp overexpressing prostate cancer cell line, DU145TXR; experiment: MTT cell viability assay, resensitization to paclitaxel; assay type: cell-based, human; details: Homo sapiens; paclitaxel alone, DU145TXR, 48 hours; read-out: IC50 PTX, PTX alone
From the text: The Group 1 ChemGen/docking routine produced variants of P-gp inhibitor 29 resensitize a multidrug resistant, P-gp overexpressing prostate cancer cell line to paclitaxel. The mitochondrial reduction potential of cells is often used as an indicator for cell viability using MTT assays^4. Using these assays it was observed that the five Group 1 derivatives of 29 predicted through the ChemGen/docking routine and synthesized here, 216, 227, 231, 541 and 551, re-sensitized the P-gp overexpressing prostate cancer cell line, DU145TXR^33, to the chemotherapeutic, paclitaxel (FIG. 12, showing results of assays at concentrations of 3 μM, 5 μM, 7 μM, and 10 μM).
Cytotoxicity of the chemotherapeutic, paclitaxel (PTX) to P-gp overexpressing prostate cancer cells, DU145TXR, was determined in the absence and presence of the ChemGen designed 29-variants, 216, 227, 231, 541 and 551. For each experimental compound IC50 values of PTX alone or in the presence of inhibitors, fold improvement of PTX sensitivity in the presence of inhibitor, and fold improvement of PTX sensitivity by variants compared to parental compound 29 are given.
Effects of Group 2 variants on the paclitaxel sensitivity of P-glycoprotein overexpressing prostate cancer cells, DU145TXR. MTT assays were again used to assess the efficacy of the new structural 29-variants on sensitizing the chemotherapy-resistant prostate cancer cell line, DU145TXR, to paclitaxel, at concentrations of 3 μM, 5 μM, 7 μM, and 10 μM as shown in FIG. 15 and Table 4.
MTT cell viability assay. Cells were trypsinized from monolayers and seeded with 3000 cells in 150 μL of complete medium in a 96 well plate. After 24 hours, cells were treated for 48 hours with paclitaxel (Acros Organics, NJ) and/or P-gp inhibitory compounds dissolved in DMSO, or DMSO controls. All additions were diluted into complete medium. After 48 hours of treatment, MTT assays were performed as described^41 using 5 mg/mL of MTT (Acros Organics, NJ) solution prepared in PBS (137 mM NaCl, 2.7 mM KCl, 10 mM Na2HPO4, 1.8 mM KH2PO4, pH 7.4). After 4 hours of incubation with MTT, the media was removed and the formazan crystals were dissolved in 100 μL of DMSO. The absorbance at 570 nm was then measured using a BioTek Cytation 5 imaging multi-mode reader (Bio-Tek, Winooski, Vt.). Percent viability was calculated using DMSO treated cells as representative for 100% viability, according to Equation 1. Background absorbance was determined using MTT and complete medium without cells and subtracted from all the test values. Equation 1:
The results were plotted as the mean with standard deviation (SD) of eight replicates per concentration from at least two independent experiments with n=8. The graphical representations and IC50 values were determined using four parameter variable slope non-linear regression, using the following equation: Y=bottom+(top-bottom)/(1+10^((log IC50−X)*Hill Slope) (GraphPad Prism™, La Jolla Calif., USA, Version 6.05). The reported “fold sensitization” was calculated as follows, per Equation 2: […]

Chain of P-gp (P-gp over-expressing cell line, DU145TXR) (P08183 whole entry): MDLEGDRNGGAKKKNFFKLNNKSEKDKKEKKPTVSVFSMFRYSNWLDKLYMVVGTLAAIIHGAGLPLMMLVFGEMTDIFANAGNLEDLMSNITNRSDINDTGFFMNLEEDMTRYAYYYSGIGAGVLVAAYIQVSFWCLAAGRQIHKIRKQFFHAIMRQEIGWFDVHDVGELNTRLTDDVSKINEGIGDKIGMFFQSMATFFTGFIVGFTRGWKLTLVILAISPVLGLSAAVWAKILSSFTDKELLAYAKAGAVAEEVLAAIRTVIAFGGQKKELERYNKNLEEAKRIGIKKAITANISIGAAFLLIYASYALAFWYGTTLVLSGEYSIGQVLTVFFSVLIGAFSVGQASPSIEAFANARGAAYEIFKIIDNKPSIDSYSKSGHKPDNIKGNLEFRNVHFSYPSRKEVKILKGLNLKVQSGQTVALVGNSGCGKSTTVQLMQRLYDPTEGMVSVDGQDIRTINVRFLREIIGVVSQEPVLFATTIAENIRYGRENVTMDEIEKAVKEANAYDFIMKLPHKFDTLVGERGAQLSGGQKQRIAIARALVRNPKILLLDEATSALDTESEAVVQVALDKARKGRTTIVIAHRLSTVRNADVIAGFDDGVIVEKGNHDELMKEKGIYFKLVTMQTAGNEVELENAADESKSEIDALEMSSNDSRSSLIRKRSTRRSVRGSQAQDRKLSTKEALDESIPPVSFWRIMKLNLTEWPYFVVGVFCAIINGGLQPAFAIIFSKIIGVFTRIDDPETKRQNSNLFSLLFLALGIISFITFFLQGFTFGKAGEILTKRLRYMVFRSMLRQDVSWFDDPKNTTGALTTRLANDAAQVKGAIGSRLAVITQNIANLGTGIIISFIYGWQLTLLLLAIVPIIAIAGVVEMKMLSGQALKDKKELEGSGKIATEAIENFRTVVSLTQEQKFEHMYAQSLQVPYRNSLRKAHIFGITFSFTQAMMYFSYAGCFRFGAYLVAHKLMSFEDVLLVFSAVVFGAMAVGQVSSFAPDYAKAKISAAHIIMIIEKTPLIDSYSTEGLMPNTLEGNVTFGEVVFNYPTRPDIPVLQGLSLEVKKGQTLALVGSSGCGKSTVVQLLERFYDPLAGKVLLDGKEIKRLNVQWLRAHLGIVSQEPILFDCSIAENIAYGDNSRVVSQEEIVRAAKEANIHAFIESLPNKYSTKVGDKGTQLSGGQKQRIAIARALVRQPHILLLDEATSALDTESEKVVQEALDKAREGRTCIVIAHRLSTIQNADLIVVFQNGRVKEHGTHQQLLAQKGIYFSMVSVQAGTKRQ

COc1cccc2c1C(=O)c1c(O)c3c(c(O)c1C2=O)C[C@@](O)(C(C)=O)C[C@@H]3O[C@H]1C[C@H](N)[C@H](O)[C@H](C)O1 [Daunorubicin, reference compound]
Transport substrate for P-gp ([1]; DU145TXR accumulation with/without tariquidar (and basal ATPase)): good transport substrate for P-gp
Intracellular accumulation in absence vs presence of tariquidar (in words) ([1]; DU145TXR, LC-MS/MS): very strong cellular accumulation

CC(=O)O[C@H]1C(=O)[C@@]2(C)[C@H]([C@H](OC(=O)c3ccccc3)[C@]3(O)C[C@H](OC(=O)[C@H](O)[C@@H](NC(=O)c4ccccc4)c4ccccc4)C(C)=C1C3(C)C)[C@]1(OC(C)=O)CO[C@@H]1C[C@@H]2O [PTX, paclitaxel, reference compound]
IC50 [2]: 2.12 µM
